Patent US20180243298A1, “TRPV3 MODULATORS” (AbbVie Inc., priority 2015, published 2018)
Like-named read-outs stand apart in the source and are kept apart here.

Columns and labels:
human TRPV3 = biological target: T1, human TRPV3 (Homo sapiens, UniProt Q8NET8); assay: Calcium flux assay (FLIPR TETRA), recombinant HEK293 cells expressing TRPV3, 2-APB response; format: cell-based; settings: 2-APB at its EC80
T1 construct: expressed in transfected cells; host or cells: HEK293
T1 sequence (Q8NET8 1-790): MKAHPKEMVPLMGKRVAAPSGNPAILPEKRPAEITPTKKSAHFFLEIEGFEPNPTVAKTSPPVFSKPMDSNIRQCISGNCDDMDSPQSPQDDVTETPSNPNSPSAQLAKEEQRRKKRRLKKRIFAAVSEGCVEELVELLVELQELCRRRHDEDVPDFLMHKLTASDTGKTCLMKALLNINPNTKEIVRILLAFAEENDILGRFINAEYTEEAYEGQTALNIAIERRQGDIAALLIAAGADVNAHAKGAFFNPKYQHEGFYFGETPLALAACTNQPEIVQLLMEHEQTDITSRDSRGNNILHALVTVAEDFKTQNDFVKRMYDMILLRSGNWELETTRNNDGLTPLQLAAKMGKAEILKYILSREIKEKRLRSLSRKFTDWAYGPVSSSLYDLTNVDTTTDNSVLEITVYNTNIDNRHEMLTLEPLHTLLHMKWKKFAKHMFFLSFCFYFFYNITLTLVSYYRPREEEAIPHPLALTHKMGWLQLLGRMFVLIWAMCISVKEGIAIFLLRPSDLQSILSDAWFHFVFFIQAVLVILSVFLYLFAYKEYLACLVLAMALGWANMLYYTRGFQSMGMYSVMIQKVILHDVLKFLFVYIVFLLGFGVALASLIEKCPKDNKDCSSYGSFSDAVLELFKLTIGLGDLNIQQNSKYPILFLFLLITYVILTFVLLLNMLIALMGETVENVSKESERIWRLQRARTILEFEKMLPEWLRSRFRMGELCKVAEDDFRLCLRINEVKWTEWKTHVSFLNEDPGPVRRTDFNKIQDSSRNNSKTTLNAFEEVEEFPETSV
In short: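 HEK293 cells stably expressing human or mouse TRPV3, loaded with Calcium-4 dye for 90–120 min, read on FLIPR TETRA. Peak fluorescence rise over baseline expressed as percent of the maximal response to 2-APB at its EC80 without compound.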

FITC-challenged mice = assay: Contact hypersensitivity (CHS) to FITC, ear swelling in mice; format: in vivo, mice (BALB/c); settings: Mus musculus, reduction in ear skin thickness vs vehicle, 24 hours after FITC challenge, read-out: FITC % effect; for inhibition in vivo at 100 mg/kg: 100 mg/kg bid po
Description: (ii) In vivo Data The following protocol was used to evaluate the efficacy of a compound against contact hypersensitivity:
Young adult female BALB/c mice (18±2 g body weight at 6-8 weeks old) Charles River Laboratories) were maintained under pathogen-free conditions and housed in an animal room maintained t at temperature of 21±1° C. and a humidity of 43±5%. Induction of contact hypersensitivity (CHS) and ear thickness measurements for all animals were carried out under light anesthesia (3-5% isoflurane/oxygen) for 1-2 minutes.
Contact hypersensitivity consists of the afferent or initiation sensitizing phase, and the efferent or elicitation phase. The latter phase occurs when epidermal cells encounter a particular antigen to which the epidermal cells have previously been exposed, and is characterized in rodents by localized swelling in the skin.
Fluorescein isothiocyanate (FITC) was purchased from Sigma-Aldrich and dissolved in 1:1 in acetone/dibutylphthalate prior to epicutaneous application. Mice were sensitized by painting epicutaneously 40 uL of 0.5% FITC on the abdomen ventral skin shaved one day prior to sensitization. Six days later, mice were challenged by painting epicutaneously 20 uL total volume of 0.5% FITC on the right ear (10 uL on either side). Control mice were treated with vehicle only. Ear swelling was measured 24 hours after challenge. Treatment groups were dosed orally at a dose volume of 10 mL/kg with compounds either BID (1 hour prior to FITC challenge, 8 hours after first dose and 2 hours prior to ear swelling measurement at 24 hours post FITC challenge) or QD (1 hour prior to FITC challenge and 2 hours prior to ear swelling measurement at 24 hours post FITC challenge). Inflammation was determined by the degree of ear swelling of the hapten exposed ear compared with the untreated ear with a Quick Mini thickness-gauge caliber (Mitutoyo, Japan). The change in ear thickness after allergen treatment can be used to calculate the percent suppression of contact hypersensitivity.
The level of compound-mediated suppression of ear skin thickness in FITC-challenged mice is indicated in Table 2 wherein “A” refers to a reduction in ear skin thickness of >50%, “B” refers to a reduction in ear skin thickness of 30-50% and “C” refers to a reduction in ear skin thickness of <30% relative to vehicle-treated animals.

Row | SMILES | IC50 (human TRPV3) | inhibition in vivo at 30 mg/kg (FITC-challenged mice; 30 mg/kg bid po) | other results
1 | COc1ncnc(OC)c1C(=O)Nc1nc(C(F)(F)F)c(CNCC(C)C)s1 [Example 52, 4,6-dimethoxy-N-[5-{[(2-methylpropyl)amino]methyl}-4-(trifluoromethyl)-1,3-thiazol-2-yl]pyrimidine-5-carboxamide] | 50 to 100 nM |  | inhibition in vivo at 10 mg/kg (FITC-challenged mice; 10 mg/kg qd po): 30 to 50%
2 | COc1ncnc(OC)c1C(=O)Nc1nc(C(F)(F)F)c(-c2cccc(C#N)n2)s1 [Example 31, N-[5-(6-cyanopyridin-2-yl)-4-(trifluoromethyl)-1,3-thiazol-2-yl]-4,6-dimethoxypyrimidine-5-carboxamide] | < 50 nM |  | inhibition in vivo at 30 mg/kg (FITC-challenged mice; 30 mg/kg qd po): > 50%
3 | COc1ncnc(OC)c1C(=O)Nc1nc(C(F)(F)F)c(-c2cncc(F)c2)s1 [Example 27, N-[5-(5-fluoropyridin-3-yl)-4-(trifluoromethyl)-1,3-thiazol-2-yl]-4,6-dimethoxypyrimidine-5-carboxamide] | 50 to 100 nM | < 30% | 
4 | COc1ncnc(OC)c1C(=O)N(COP(=O)(O)O)c1nc(-c2ccc(C(F)(F)F)cn2)cs1 [Example 74, ([(4,6-dimethoxypyrimidin-5-yl)carbonyl]{4-[5-(trifluoromethyl)pyridin-2-yl]-1,3-thiazol-2-yl}amino)methyl dihydrogen phosphate] |  |  | inhibition in vivo at 100 mg/kg (FITC-challenged mice): > 50%
5 | COc1ncnc(OC)c1C(=O)Nc1nc(C(F)(F)F)c(-c2cnoc2)s1 [Example 169, 4,6-dimethoxy-N-[5-(1,2-oxazol-4-yl)-4-(trifluoromethyl)-1,3-thiazol-2-yl]pyrimidine-5-carboxamide] | < 50 nM | < 30% | 
6 | COc1ncnc(OC)c1C(=O)Nc1nc(C(F)(F)F)c(-c2ccc3nonc3c2)s1 [Example 199, N-[5-(2,1,3-benzoxadiazol-5-yl)-4-(trifluoromethyl)-1,3-thiazol-2-yl]-4,6-dimethoxypyrimidine-5-carboxamide] | < 50 nM | 30 to 50% | 
7 | COc1ncnc(OC)c1C(=O)Nc1nc(C(F)(F)F)c(-c2ccnc(C#N)c2)s1 [Example 66, N-[5-(2-cyanopyridin-4-yl)-4-(trifluoromethyl)-1,3-thiazol-2-yl]-4,6-dimethoxypyrimidine-5-carboxamide] | 50 to 100 nM |  | inhibition in vivo at 100 mg/kg (FITC-challenged mice): > 50%
8 | COc1ncnc(OC)c1C(=O)Nc1nc(C(F)(F)F)c(-c2cccnc2C#N)s1 [Example 42, N-[5-(2-cyanopyridin-3-yl)-4-(trifluoromethyl)-1,3-thiazol-2-yl]-4,6-dimethoxypyrimidine-5-carboxamide] | < 50 nM | < 30% | 
9 | COc1ncnc(OC)c1C(=O)Nc1nc(C(F)(F)F)c(-c2cccnc2C)s1 [Example 64, 4,6-dimethoxy-N-[5-(2-methylpyridin-3-yl)-4-(trifluoromethyl)-1,3-thiazol-2-yl]pyrimidine-5-carboxamide] | < 50 nM |  | inhibition in vivo at 30 mg/kg (FITC-challenged mice; 30 mg/kg qd po): 30 to 50%
10 | COc1ncnc(OC)c1C(=O)Nc1nc(C(F)(F)F)c(CN2CCC(F)CC2)s1 [Example 53, N-{5-[(4-fluoropiperidin-1-yl)methyl]-4-(trifluoromethyl)-1,3-thiazol-2-yl}-4,6-dimethoxypyrimidine-5-carboxamide] | < 50 nM |  | inhibition in vivo at 10 mg/kg (FITC-challenged mice; 10 mg/kg bid po): 30 to 50%
11 | COc1ncnc(OC)c1C(=O)Nc1nc(C(F)(F)F)c(-c2cc(C(F)(F)F)nn2C)s1 [Example 65, 4,6-dimethoxy-N-{5-[1-methyl-3-(trifluoromethyl)-1H-pyrazol-5-yl]-4-(trifluoromethyl)-1,3-thiazol-2-yl}pyrimidine-5-carboxamide] | < 50 nM | < 30% | 
12 | COc1ncnc(OC)c1C(=O)Nc1nc(C(F)(F)F)c(-c2ccnc(C(C)(C)C#N)c2)s1 [Example 33, N-{5-[2-(2-cyanopropan-2-yl)pyridin-4-yl]-4-(trifluoromethyl)-1,3-thiazol-2-yl}-4,6-dimethoxypyrimidine-5-carboxamide] | 50 to 100 nM |  | inhibition in vivo at 30 mg/kg (FITC-challenged mice; 30 mg/kg qd po): > 50%
